Series [1] has as its system DU145 cells. Put plainly: Antiproliferation screen assay, resazurin, 72 h. In kind it is cell-based, human. As to conditions: 50 μM. As to the method:
(§1) In this screen, we examined the growth inhibitory effects of all synthesized KKRs on the three human PCa cell lines LNCaP, DU145, and PC3. The antiproliferative clinical drug TAX of 0.25 μM was used as a positive control. Additionally, different standards of MAO-Is and FLUT were tested for their effect on the LNCaP cells. Briefly, the procedures and materials used were the same as for the viability assay except for the following—cultured cells were seeded at 10,000 cells/175-µL/well related experimental media, and the resazurin solution was added after 72 h of incubation with the compounds of 50 μM each.

The subject of series [2] is PC3 cells. Put plainly: Antiproliferation screen assay, resazurin, 72 h. It counts as cell-based, human. As to conditions: 50 μM. As for the experimental part:
as §1

For series [3], the system named is LNCaP cells. Description: Antiproliferation screen assay, resazurin, 72 h. It counts as cell-based, human. As to conditions: 50 μM. As to the method:
as §1

The test system of series [4] is LNCaP cells. Put plainly: Viability screen assay, resazurin, 24 h. It counts as cell-based, human. As to conditions: 50 μM, 90% viability as margin of cytotoxicity. As for the experimental part:
We examined the cytotoxic effects of all 20 synthesized KKRs on the three human PCa cell lines LNCaP, DU145, and PC3, after a 24 h exposure period. Non-toxic TAX was used for comparison. Briefly, cultured cells were seeded in black transparent bottom 96-well microplates at 50,000 cells/175-µL/well in experimental media (RPMI1640 for LNCaP, EMEM for DU145, and DMEM/F12K for PC3), supplied with 5% FBS and 1% P/S. Wells of media without cells were considered blanks and negative controls. The plates were incubated overnight at 37 °C in 5% CO2 to allow cell attachment. For each compound, a working solution of 8X KKR in sterile […] HEPES in HBSS pH buffer of 7.4 was prepared for a final concentration of 50 μM each. The three attached cell types were treated immediately with the related buffer being added to the control wells. A sterile fluorescence-based solution of the resazurin reagent of 0.5 mg/mL in HBSS was prepared. After 24 h, the cells were exposed to 15% v/v of the sterile resazurin reagent, and the plates were re-incubated for 4.5 h to allow redox reaction. All plates were read under 530/590-nm excitation/emission wavelengths using Bio-Tek Synergy HTX Multi-reader as a microplate fluorescence reader.
In general terms: Alamar Blue is a resazurin reagent that responds to reducing activity.

The target in a further series is T1, hMAO-A (Homo sapiens, UniProt P21397).
T1 construct: purchased Sigma-Aldrich Co. (St. Louis, MO, USA)
T1 sequence (P21397 1-527): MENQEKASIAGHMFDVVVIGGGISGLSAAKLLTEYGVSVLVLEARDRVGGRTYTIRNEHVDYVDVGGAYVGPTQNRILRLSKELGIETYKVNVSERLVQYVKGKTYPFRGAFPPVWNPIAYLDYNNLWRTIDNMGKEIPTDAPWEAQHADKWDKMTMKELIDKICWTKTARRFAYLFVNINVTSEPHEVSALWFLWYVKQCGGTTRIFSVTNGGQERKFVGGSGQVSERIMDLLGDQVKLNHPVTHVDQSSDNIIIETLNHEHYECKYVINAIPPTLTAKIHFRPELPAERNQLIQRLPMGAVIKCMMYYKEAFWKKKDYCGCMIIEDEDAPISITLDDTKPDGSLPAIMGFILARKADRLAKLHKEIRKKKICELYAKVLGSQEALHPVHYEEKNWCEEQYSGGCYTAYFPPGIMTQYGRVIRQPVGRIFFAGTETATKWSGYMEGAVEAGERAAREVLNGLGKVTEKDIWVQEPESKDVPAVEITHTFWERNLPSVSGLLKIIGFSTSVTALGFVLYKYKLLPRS
Put plainly: MAO-Glow luminescence screen of KKRs at 100 μM. In kind it is biochemical. As to conditions: 100 μM screen. As to the method: (§2) We optimized our control hMAO-A and hMAO-B isozymes reactions in the incubation condition, at 37 °C for 1 h, by performing a luminescence assay using the MAO-Glow™ kit. Upon arrival, each isozyme was diluted with 10 mM HEPES in cold HBSS of pH 7.4. Afterward, the diluted isozymes were kept at −80 °C until use. Enzyme concentration optimization was accomplished by testing ten 2X serially diluted hMAO-A and hMAO-B concentrations for a final range of 7.00–0.01 U/mL each. The tested isozymes were incubated with LDS of 40 and 4 μM for isozymes A and B, respectively (recommended by Promega protocol), and a maximum of used DMSO of 1% final concentration. Different isozyme concentrations reactions at their initial velocities were monitored. Consequently, their required concentrations were defined to be 0.44 U/mL each. Additionally, ten different LDS concentrations, ranging from 0.3–150 μM, were monitored for optimizing and validating the linearity of the initial reaction for the hMAO-A mode of action. Subsequently, we chose a saturated substrate of 75 μM as a required concentration for the hMAO-A enzyme kinetic reactions.
(§3) The inhibitory effects of the synthesized KKRs of hMAO-A and B were tested by measuring the decrease in arbitrary light units (ALU) signal produced by the optimized isozymes using the MAO-Glow™ Assay at 37 °C. In this assay, DMSO stock for each KKR compound was diluted with a reaction buffer of pH 7.4 to make a 4X working solution for a maximum final concentration of 100 μM and ≤1% DMSO. The experiments were run in the absence and presence of 4X the miscellaneous standards of MAO-BIs (DEP, PARG, and SAF) and MAO-AIs (PIRL and CLORG), with similar concentrations. In white opaque 96-well microplates, 12.5 μL of each compound was plated at RT and was followed by 25 μL of 2X cold hMAO-A or hMAO-B, for a final concentration of 0.44 U/mL. A related buffer substituted each isozyme to make the blank wells and substituted each compound to make the negative control wells. Following this, we added 12.5 μL of 4X LDS to make a final substrate concentration of 40- and 4-μM for hMAO-A and hMAO-B, respectively. All screen plates were incubated at 37 °C for 60 min. The plates of 50 μL/well were then taken out from the incubator, and their reactions were stopped by an equal volume of 50 μL of reporter luciferin detection reagent (RLDR). After 30 min, the luminescence signals for all plates were read on a Synergy HTX Multi-reader from Bio-Tek (Winooski, VT, USA).

A further series concerns the target T2, hMAO-B (Homo sapiens, UniProt P27338).
T2 construct: purchased Sigma-Aldrich Co. (St. Louis, MO, USA)
T2 sequence (P27338 1-520): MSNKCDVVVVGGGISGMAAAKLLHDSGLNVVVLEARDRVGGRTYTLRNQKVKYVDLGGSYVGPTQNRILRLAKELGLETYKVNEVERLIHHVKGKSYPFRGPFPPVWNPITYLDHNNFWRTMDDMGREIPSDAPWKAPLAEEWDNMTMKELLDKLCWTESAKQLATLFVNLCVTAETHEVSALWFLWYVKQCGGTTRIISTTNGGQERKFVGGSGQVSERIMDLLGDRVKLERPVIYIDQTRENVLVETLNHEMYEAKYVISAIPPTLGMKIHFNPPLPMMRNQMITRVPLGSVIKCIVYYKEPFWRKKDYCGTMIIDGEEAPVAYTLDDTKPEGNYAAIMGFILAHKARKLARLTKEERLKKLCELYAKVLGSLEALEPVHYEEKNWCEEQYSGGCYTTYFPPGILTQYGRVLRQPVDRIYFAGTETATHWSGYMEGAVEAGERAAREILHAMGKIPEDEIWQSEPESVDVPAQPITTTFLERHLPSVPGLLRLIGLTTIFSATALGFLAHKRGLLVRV
Description: MAO-Glow luminescence screen of KKRs at 100 μM. In kind it is biochemical. As to conditions: 100 μM screen. As for the experimental part: as §2, §3

The subject of series [5] is DU145 cells. Put plainly: Antiproliferation dose-response assay for 72 h. It counts as cell-based. As to conditions: Homo sapiens, DU-145; DU145, 72 h, mean ± SEM of two experiments; read-out: antiproliferative IC50. As to the method: (§4) For the top effective KKRs, along with TAX, their potency to reduce the affected PCa cell line growth in a dose-dependent manner was determined using the resazurin fluorescence assay. We followed the same protocols and materials used for the antiproliferation screen assays (Section 4.3.2), with the following modifications. The maximum final KKR concentration used was 40 μM. The concentration of 8X of each KKR working solution in 1% HEPES 7.4 was serially diluted in a 3:1 ratio, compound to buffer, respectively. Each data set was collected from ten data points of 3.7–40 μM range. The control had the KKR substituted with buffer. The related IC50 averages were analyzed for the compounds that affected the cell lines the most.

The subject of series [6] is PC3 cells. Put plainly: Antiproliferation dose-response assay for 72 h. In kind it is cell-based. As to conditions: Homo sapiens, PC-3; PC3, 72 h, mean ± SEM of two experiments; read-out: antiproliferative IC50. As to the method: as §4
For series [7], the system named is LNCaP cells. Description: Antiproliferation dose-response assay for 72 h. In kind it is cell-based. As to conditions: Homo sapiens, mean ± SEM of two experiments, read-out: antiproliferative IC50. As to the method:
as §4

These results are taken from article PMC7249060, “The Antiproliferative Effects of Flavonoid MAO Inhibitors on Prostate Cancer Cells” (Molecules, 2020).

Usually IC50 stands for the concentration needed to halve the response being measured. `COc1cc(O)c(C(=O)/C=C/c2cc(OC)c(OC)c(OC)c2)c(OC)c1` [KKR17, (E)-1-(2-hydroxy-4,6-dimethoxyphenyl)-3-(3,4,5-trimethoxyphenyl)prop-2-en-1-one]: the “antiproliferative effect in screen” value with DU145 cells [1] is listed as “top effective”; in the series on PC3 cells [2], “effective against all investigated cell lines, including the metastatic PC3”; with LNCaP cells [3] it was “top five KKRs that kept standing out with antiproliferative effects”. Further, the “cytotoxicity / cell viability” value in the series on LNCaP cells [4] is listed as “affected the LNCaP cells”. For the same molecule, the “MAO inhibitory property in MAO screen” value at hMAO-A and at hMAO-B was “did not have MAO inhibitory properties” each time. Further, the results for the IC50 with DU145 cells [5], in the series with PC3 cells [6] and in the series with LNCaP cells [7] were 9 ± 0.5 µM, 34 ± 1 µM and 21 ± 1 µM, respectively.
